Assay results published in US20050282877A1, “Method of decreasing inflammation in kidney transplantion using angiotensin receptor blockers” (priority 2004, published 2005).

How the values were obtained:
plasma proteins = settings: in vivo; cited from earlier work
[1] = cited from earlier work
IFN-Γ = assay: ELISpot assay for T cell generation of IFN-Γ in PBLs from CAN patients; format: in vivo, human
Method: Once identified, study subjects were randomized and treated with either losartan (25-100 mg) as part of their anti-hypertensive regimen or with other types of anti-hypertensive agents, e.g., calcium channel blockers. Agents functioning as AT1R blockers were excluded. Neither group received ACE inhibitors. Study subjects were maintained on their standard immunosuppressive regimen (corticosteroids 5-10 mg orally daily; mycophenolate mofetil 500 to 1000 mg orally twice a day; and calcineurin inhibition with either tacrolimus (target levels 2-5 ng/ml), cyclosporine A (target levels 100-150 ng/ml), or rapamycin (target levels 5-15 ng/ml ). Eight to nine milliliters of whole blood taken at each time point from each individual were incubated at room temperature in 40 ml ACK lysis buffer (150 mM NH4Cl, 10 mM KHCO3, 0.1 mM Na2EDTA, pH 7.3) for 10 minutes to lyse red blood cells. Samples were then centrifuged at 1000 rpm. The supernatant was discarded. Cells were resuspended in 10 ml complete RPMI media (RPMI-1640, BioWhitaker, Walkersville, Md.) supplemented with FCS (Sigma Aldrich, St. Louis, Mo.); 2 mM L-glutamine (BioWhitaker); 50 μM 2-β-mercaptoethanol (Sigma Aldrich); 100 U/ml penicillin; and 100 μg/ml streptomycin sulfate (Sigma Aldrich). Twenty μl of this sample was removed for cell enumeration. Forty ml of complete RPMI media was then added to the remaining sample and this was centrifuged at 1000 rpm for 10 minutes. The resulting PBL pellet was resuspended in complete RPMI media at a concentration of 1.5×10^6 cells per ml. ELISpot assays were conducted according to the manufacturer's directions (Cellular Technology Ltd., Cleveland, Ohio). Briefly, after plating cells in the proliferation assay, the balance of the cells unused in that assay were used for the ELISpot assay at a concentration of 3×10^6 cells per ml. One hundred μl of RPMI media were added to each well with a multichannel pipetter. Aliquots of treated and untreated cells (300 μl) were added to the IFN-Γ and IL-5 wells with serial two-fold dilutions. The last row served as a media control. ELISpot plates were incubated for two days at 37EC. Plates were washed three times with PBS and then washed three times with PBS/Tween. Secondary detection antibodies (OptElA, IFN, and IL-5 obtained from the aforementioned kits) were diluted at 4 μl/ml in 1% BSA/PBS and added to the plates for 24 hours at 4EC. The plates were then washed four times with PBS/Tween. Streptavidin alkaline phosphatase 1:1000 (Dako Cytomation, Glostrop, Denmark, catalog no. D0396) 100 μl/well diluted in 1% BSA/PBS/Tween was then added to the plates at room temperature for two hours. […] Plate images were then scanned into computer images and spots analyzed using Immunospot-brand software (from CTL Technologies).

STAT3 = settings: losartan treatment; cited from earlier work
IL-4 or IL-5 = assay: ELISpot assay for IL-4 or IL-5 production in PBLs from CAN patients; format: in vivo, human; settings: following institution of ARB therapy (data not shown)
Method: Once identified, study subjects were randomized and treated with either losartan (25-100 mg) as part of their anti-hypertensive regimen or with other types of anti-hypertensive agents, e.g., calcium channel blockers. Agents functioning as AT1R blockers were excluded. Neither group received ACE inhibitors. Study subjects were maintained on their standard immunosuppressive regimen (corticosteroids 5-10 mg orally daily; mycophenolate mofetil 500 to 1000 mg orally twice a day; and calcineurin inhibition with either tacrolimus (target levels 2-5 ng/ml), cyclosporine A (target levels 100-150 ng/ml), or rapamycin (target levels 5-15 ng/ml ). ELISpot assays were conducted according to the manufacturer's directions (Cellular Technology Ltd., Cleveland, Ohio). Briefly, after plating cells in the proliferation assay, the balance of the cells unused in that assay were used for the ELISpot assay at a concentration of 3×10^6 cells per ml. One hundred μl of RPMI media were added to each well with a multichannel pipetter. Aliquots of treated and untreated cells (300 μl) were added to the IFN-Γ and IL-5 wells with serial two-fold dilutions. The last row served as a media control. ELISpot plates were incubated for two days at 37EC. […] Plate images were then scanned into computer images and spots analyzed using Immunospot-brand software (from CTL Technologies).

[2] = tested on: peripheral blood lymphocytes (PBLs); assay: Proliferation assay ([3H]-thymidine) of CD3/CD28-stimulated PBLs from CAN patients; format: in vivo, human
Method: Once identified, study subjects were randomized and treated with either losartan (25-100 mg) as part of their anti-hypertensive regimen or with other types of anti-hypertensive agents, e.g., calcium channel blockers. Agents functioning as AT1R blockers were excluded. Neither group received ACE inhibitors. Study subjects were maintained on their standard immunosuppressive regimen (corticosteroids 5-10 mg orally daily; mycophenolate mofetil 500 to 1000 mg orally twice a day; and calcineurin inhibition with either tacrolimus (target levels 2-5 ng/ml), cyclosporine A (target levels 100-150 ng/ml), or rapamycin (target levels 5-15 ng/ml ). Eight to nine milliliters of whole blood taken at each time point from each individual were incubated at room temperature in 40 ml ACK lysis buffer (150 mM NH4Cl, 10 mM KHCO3, 0.1 mM Na2EDTA, pH 7.3) for 10 minutes to lyse red blood cells. Samples were then centrifuged at 1000 rpm. The supernatant was discarded. Cells were resuspended in 10 ml complete RPMI media (RPMI-1640, BioWhitaker, Walkersville, Md.) supplemented with FCS (Sigma Aldrich, St. Louis, Mo.); 2 mM L-glutamine (BioWhitaker); 50 μM 2-β-mercaptoethanol (Sigma Aldrich); 100 U/ml penicillin; and 100 μg/ml streptomycin sulfate (Sigma Aldrich). Twenty μl of this sample was removed for cell enumeration. Forty ml of complete RPMI media was then added to the remaining sample and this was centrifuged at 1000 rpm for 10 minutes. The resulting PBL pellet was resuspended in complete RPMI media at a concentration of 1.5×10^6 cells per ml. CD3/CD28-coated plates were coated with antibody diluted in PBS (1 mg/mI). […] Some plates were analyzed immediately after the overnight incubation. Other plates were frozen at 20EC and then analyzed within 30 days of the initial study. [^3H]-Thymidine incorporation was then determined using a Packard TopCount NXT scintillation plate reader. […] The Δ proliferation index was then calculated by assessing the difference between the proliferation index at baseline and the proliferation index at various study time points as indicated.

[3] = Estimated glomerular filtration rate (eGFR) in the study cohort; format: in vivo, human; settings: with institution of ARB therapy, compared to control group
Method: FIG. 1B is a graph depicting the estimated glomerular filtration rate (eGFR) in the study cohort. Estimated GFR was calculated using the second equation derived by Nankivell et al. at the time points designated in the Examples. […] The eGFR in the ARB-treated cohort (-o-) declined slightly after treatment as compared to the control group (-▪-). Data shown are mean±standard deviation.
(§1) Once identified, study subjects were randomized and treated with either losartan (25-100 mg) as part of their anti-hypertensive regimen or with other types of anti-hypertensive agents, e.g., calcium channel blockers. Agents functioning as AT1R blockers were excluded. Neither group received ACE inhibitors. Study subjects were maintained on their standard immunosuppressive regimen (corticosteroids 5-10 mg orally daily; mycophenolate mofetil 500 to 1000 mg orally twice a day; and calcineurin inhibition with either tacrolimus (target levels 2-5 ng/ml), cyclosporine A (target levels 100-150 ng/ml), or rapamycin (target levels 5-15 ng/ml ).
Study subjects underwent biopsies at the initiation of the study. Simultaneously, whole blood samples were obtained for analysis of peripheral blood lymphocyte proliferation and stimulated cytokine production. […] Estimated glomerular filtration rate (eGFR) was assessed using the second equation derived by Nankivell. […]

urinary H2O2 = assay: Detection of urinary hydrogen peroxide (H2O2) in kidney transplant recipients with CAN; format: in vivo, human; settings: mean±SD
Method: The study, enrollment process, and protocols described herein were approved by the University of Wisconsin Institutional Review Board. Individuals with evidence of chronic allograft dysfunction have allograft functionality greater than 6 months with serum creatinine≧0.3 mg/dl above discharge creatinine. In the absence of acute rejection, these individuals have obstructive uropathy or urinary tract infection. To be eligible for the study, individuals also had concomitant evidence of elevated blood pressure (>140/80) and/or proteinuria (>2+ on dipstick urinalysis or spot urine protein-to-creatinine ratio>1).
as §1
(§2) Study subjects underwent biopsies at the initiation of the study. Simultaneously, whole blood samples were obtained for analysis of peripheral blood lymphocyte proliferation and stimulated cytokine production. Subsequent whole blood samples were obtained at three-month intervals for serial analyses. […] Estimated glomerular filtration rate (eGFR) was assessed using the second equation derived by Nankivell. […]
The Amplex Red Hydrogen Peroxide/Peroxidase Assay Kit (Molecular Probes, Eugene, Ore.) was used according to the manufacturer's instructions to measure H2O2. […] A microplate reader with fluorescence emission detection at 590 nm was used to measure H2O2 levels. H2O2 concentrations were read from the standard curve.

[4] = Systolic blood pressure in the study cohort; format: in vivo, human; settings: every clinic visit at 3-month intervals
Method: FIG. 1A is a graph depicting the systolic blood pressure in the study cohort. (The study cohort is described in the Examples.) Blood pressure was assessed at every clinic visit at 3-month intervals. […] Data shown are mean±standard deviation.”
as §1, §2

STAT1 = settings: losartan treatment; cited from earlier work

In the case of `CCCCc1nc(Cl)c(C(=O)O)n1Cc1ccc(-c2ccccc2-c2nn[nH]n2)cc1` [active metabolite of losartan], the plasma-free fraction (plasma proteins) is listed as 0.2%.
In the case of `CCCc1nc2c(C)cc(-c3nc4ccccc4n3C)cc2n1Cc1ccc(-c2ccccc2C(=O)O)cc1` [Telmisartan, 4′-[(1,4′-dimethyl-2′-propyl [2,6′-bi-1H-benzimidazol]-1′-yl)methyl]-[1,1′-biphenyl]-2-carboxylic acid], the “solubility in strong acids” value ([1]; strong acids (except HCl)) is given as “sparingly soluble”, the “solubility in strong bases” value ([1]; strong bases) is given as “soluble” and the “solubility in water within a pH range” value ([1]; water, pH range of from 3 to 9) is given as “practically insoluble”.
In the case of `CCCCc1nc(Cl)c(CO)n1Cc1ccc(-c2ccccc2-c2nnn[nH]2)cc1.[K]` [losartan, 2-butyl-4-chloro-1-[p-(o-1H-tetrazol-5-ylphenyl)benzyl]imidazole-5-methanol monopotassium salt], the “IFN-Γ producing cells (ELISpot)” value (IFN-Γ; 3 months, p=0.01 vs control) is reported as 4127±1289 spots per 1×10^6 cells, the “IFN-Γ producing cells (ELISpot)” value (IFN-Γ; 6 months, p=0.05 vs control) is reported as 3899±1508 spots per 1×10^6 cells and the “IFN-Γ producing cells (ELISpot)” value (IFN-Γ; 9 months, p<0.001 vs control) is reported as 3845±1493 spots per 1×10^6 cells. The “IFN-Γ producing cells (ELISpot)” value (IFN-Γ; 12 months, p<0.05 vs control) was 4276±1456 spots per 1×10^6 cells, the “phosphorylation of STAT3” value (STAT3) was “decrease phosphorylation” and the “IL-4 or IL-5 production” value (IL-4 or IL-5) was “no significant change”. The “solubility in common organic solvents” value ([1]; acetonitrile and methyl ethyl ketone) was “slightly soluble”, the solubility in alcohols ([1]; alcohols) was “soluble” and the solubility in water ([1]; water) was “freely soluble”. The “reduction in T lymphocyte proliferation indices versus the control group” value ([2]; 6 month of losartan treatment, p<0.005) was 69±47 % decrease, the “reduction in T lymphocyte proliferation indices versus the control group” value ([2]; 9 month of losartan treatment, p<0.05) was 52±21 % decrease and the “Δ proliferation index (change from baseline)” value ([2]; three, six, and nine months, p<0.04) was “significant reduction”. For the same compound, the eGFR [3] was “slight reduction”, the “urinary H2O2 excretion” value (urinary H2O2; 6 months of treatment) was 2.17 ± 0.42 µM and the “urinary H2O2 excretion” value (urinary H2O2; 9 months of treatment, p<0.05 vs. time 0) was 1.65 ± 0.49 µM. For the same compound, the “urinary H2O2” value (urinary H2O2; baseline (time 0), ARB cohort) was 2.51 ± 0.62 µM, the “systolic blood pressure, ARB-treated versus non-ARB-treated cohort” value [4] was “no significant differences” and the plasma-free fraction (plasma proteins) was 1.3%. The “phosphorylation of STAT1” value (STAT1) was “decrease phosphorylation”.
